{"source": "patent US20250262279A1", "about": "“DOSE REGIMEN FOR LONG-ACTING GLP1/GLUCAGON RECEPTOR AGONISTS” (Boehringer Ingelheim International GmbH, priority 2021, published 2025)", "format_in_all_cases": "in vivo", "key": {"[1]": {"assay": "Example 2: plasma pharmacokinetics", "details": "human, sc, read-out: AUC0-168 (gMean)", "text": "In Table 9, only the gMean PK parameters of subjects who followed the planned dose rising scheme are included. Following subcutaneous administration of Compound I, the gMean plasma AUC0-168 and Cmax increased with further weekly or twice weekly dosing."}, "[2]": {"assay": "plasma half-life in humans", "details": "human, estimated"}, "[3]": {"assay": "Example 1: plasma pharmacokinetics", "details": "human, sc; for Cmax: read-out: Cmax (gMean)"}}, "note": "Like-named read-outs stand apart in the source and are kept apart here."}
{"compound": "CC[C@H](C)[C@H](NC(=O)[C@H](Cc1ccccc1)NC(=O)[C@H](CC(=O)O)NC(=O)[C@H](CCCCN)NC(=O)[C@H](C)NC(=O)[C@H](C)NC(=O)[C@H](CCCNC(=N)N)NC(=O)[C@H](CCC(=O)O)NC(=O)[C@H](CC(=O)O)NC(=O)[C@H](CC(C)C)NC(=O)[C@H](Cc1ccc(O)cc1)NC(=O)[C@H](CCCCN)NC(=O)[C@H](CO)NC(=O)[C@H](Cc1ccc(O)cc1)NC(=O)[C@H](CC(=O)O)NC(=O)[C@H](CO)NC(=O)[C@@H](NC(=O)[C@H](Cc1ccccc1)NC(=O)[C@@H](NC(=O)CNC(=O)[C@H](CCC(N)=O)NC(=O)C1(NC(=O)[C@@H](N)Cc2c[nH]cn2)CCC1)[C@@H](C)O)[C@@H](C)O)C(=O)N[C@@H](CCCCNC(=O)CNC(=O)CNC(=O)[C@H](CO)NC(=O)CNC(=O)[C@H](CO)NC(=O)CNC(=O)CC[C@H](NC(=O)CCCCCCCCCCCCCCCCC(=O)O)C(=O)O)C(=O)N[C@@H](Cc1c[nH]c2ccccc12)C(=O)N[C@@H](CC(C)C)C(=O)N[C@@H](CCC(=O)O)C(=O)N[C@@H](CO)C(=O)N[C@@H](C)C(N)=O", "note": "[Compound I]", "values": [{"measurement": "AUC(0-t)", "setting": "[1]; 0.6 mg, Ex.2 DG2 weekly, wk 1, 0.6 mg sc", "value": 2.02, "unit": "µM·h"}, {"measurement": "AUC(0-t)", "setting": "[1]; 0.6 mg, Ex.2 DG3 twice weekly, wk 3, 0.6 mg sc", "value": 1.64, "unit": "µM·h"}, {"measurement": "AUC(0-t)", "setting": "[1]; 0.9 mg, Ex.2 DG1 weekly, wk 3, 0.9 mg sc", "value": 3.62, "unit": "µM·h"}, {"measurement": "AUC(0-t)", "setting": "[1]; 0.9 mg, Ex.2 DG3 twice weekly, wk 5, 0.9 mg sc", "value": 3.52, "unit": "µM·h"}, {"measurement": "AUC(0-t)", "setting": "[1]; 0.9 mg, Ex.2 DG3 twice weekly, wk 6, 0.9 mg sc", "value": 3.83, "unit": "µM·h"}, {"measurement": "AUC(0-t)", "setting": "[1]; 1.2 mg, Ex.2 DG2 weekly, wk 3, 1.2 mg sc", "value": 4.93, "unit": "µM·h"}, {"measurement": "AUC(0-t)", "setting": "[1]; 1.2 mg, Ex.2 DG3 twice weekly, wk 7, 1.2 mg sc", "value": 4.69, "unit": "µM·h"}, {"measurement": "AUC(0-t)", "setting": "[1]; 1.5 mg, Ex.2 DG1 weekly, wk 5, 1.5 mg sc", "value": 6.74, "unit": "µM·h"}, {"measurement": "AUC(0-t)", "setting": "[1]; 1.5 mg, Ex.2 DG3 twice weekly, wk 9, 1.5 mg sc", "value": 6.72, "unit": "µM·h"}, {"measurement": "AUC(0-t)", "setting": "[1]; 1.8 mg, Ex.2 DG1 weekly, wk 6, 1.8 mg sc", "value": 8.41, "unit": "µM·h"}, {"measurement": "AUC(0-t)", "setting": "[1]; 1.8 mg, Ex.2 DG1 weekly, wk 7, 1.8 mg sc", "value": 9.01, "unit": "µM·h"}, {"measurement": "AUC(0-t)", "setting": "[1]; 1.8 mg, Ex.2 DG1 weekly, wk 9, 1.8 mg sc", "value": 8.52, "unit": "µM·h"}, {"measurement": "AUC(0-t)", "setting": "[1]; 1.8 mg, Ex.2 DG1 weekly, wk 11, 1.8 mg sc", "value": 8.83, "unit": "µM·h"}, {"measurement": "AUC(0-t)", "setting": "[1]; 1.8 mg, Ex.2 DG1 weekly, wk 13, 1.8 mg sc", "value": 9.22, "unit": "µM·h"}, {"measurement": "AUC(0-t)", "setting": "[1]; 1.8 mg, Ex.2 DG1 weekly, wk 15, 1.8 mg sc", "value": 9.5, "unit": "µM·h"}, {"measurement": "AUC(0-t)", "setting": "[1]; 1.8 mg, Ex.2 DG1 weekly, wk 16, 1.8 mg sc", "value": 9.62, "unit": "µM·h"}, {"measurement": "AUC(0-t)", "setting": "[1]; 1.8 mg, Ex.2 DG2 weekly, wk 5, 1.8 mg sc", "value": 6.64, "unit": "µM·h"}, {"measurement": "AUC(0-t)", "setting": "[1]; 1.8 mg, Ex.2 DG2 weekly, wk 6, 1.8 mg sc", "value": 7.55, "unit": "µM·h"}, {"measurement": "AUC(0-t)", "setting": "[1]; 1.8 mg, Ex.2 DG3 twice weekly, wk 11, 1.8 mg sc", "value": 8.21, "unit": "µM·h"}, {"measurement": "AUC(0-t)", "setting": "[1]; 2.1 mg, Ex.2 DG3 twice weekly, wk 13, 2.1 mg sc", "value": 9.78, "unit": "µM·h"}, {"measurement": "AUC(0-t)", "setting": "[1]; 2.4 mg, Ex.2 DG2 weekly, wk 7, 2.4 mg sc", "value": 9.83, "unit": "µM·h"}, {"measurement": "AUC(0-t)", "setting": "[1]; 2.4 mg, Ex.2 DG3 twice weekly, wk 15, 2.4 mg sc", "value": 10.2, "unit": "µM·h"}, {"measurement": "AUC(0-t)", "setting": "[1]; 2.4 mg, Ex.2 DG3 twice weekly, wk 16, 2.4 mg sc", "value": 11.2, "unit": "µM·h"}, {"measurement": "AUC(0-t)", "setting": "[1]; 3 mg, Ex.2 DG2 weekly, wk 9, 3.0 mg sc", "value": 13.7, "unit": "µM·h"}, {"measurement": "AUC(0-t)", "setting": "[1]; 3.6 mg, Ex.2 DG2 weekly, wk 11, 3.6 mg sc", "value": 16.4, "unit": "µM·h"}, {"measurement": "AUC(0-t)", "setting": "[1]; 4.2 mg, Ex.2 DG2 weekly, wk 13, 4.2 mg sc", "value": 19.3, "unit": "µM·h"}, {"measurement": "AUC(0-t)", "setting": "[1]; 4.8 mg, Ex.2 DG2 weekly, wk 15, 4.8 mg sc", "value": 22.9, "unit": "µM·h"}, {"measurement": "half-life", "setting": "[2]", "value": "~110", "unit": "h"}, {"measurement": "AUC(0-t)", "setting": "[3]; 0.3 mg, Ex.1 twice weekly scheme, wk 1, 0.3 mg sc, read-out: AUC0-72 (gMean)", "value": 0.342, "unit": "µM·h"}, {"measurement": "Cmax", "setting": "[3]; 0.3 mg, Ex.1 twice weekly scheme, wk 1, 0.3 mg sc", "value": 5.38, "unit": "nM"}, {"measurement": "AUC(0-t)", "setting": "[3]; 0.3 mg, Ex.1 weekly scheme 1, wk 1, 0.3 mg sc, read-out: AUC0-168 (gMean)", "value": 0.617, "unit": "µM·h"}, {"measurement": "Cmax", "setting": "[3]; 0.3 mg, Ex.1 weekly scheme 1, wk 1, 0.3 mg sc", "value": 5.08, "unit": "nM"}, {"measurement": "AUC(0-t)", "setting": "[3]; 0.4 mg, Ex.1 weekly scheme 2, wk 1, 0.4 mg sc, read-out: AUC0-168 (gMean)", "value": 0.818, "unit": "µM·h"}, {"measurement": "Cmax", "setting": "[3]; 0.4 mg, Ex.1 weekly scheme 2, wk 1, 0.4 mg sc", "value": 6.51, "unit": "nM"}, {"measurement": "AUC(0-t)", "setting": "[3]; 0.6 mg, Ex.1 twice weekly scheme, wk 3, 0.6 mg sc, read-out: AUC0-72 (gMean)", "value": 1.2, "unit": "µM·h"}, {"measurement": "Cmax", "setting": "[3]; 0.6 mg, Ex.1 twice weekly scheme, wk 3, 0.6 mg sc", "value": 20.4, "unit": "nM"}, {"measurement": "AUC(0-t)", "setting": "[3]; 0.6 mg, Ex.1 weekly scheme 1, wk 2, 0.6 mg sc, read-out: AUC0-168 (gMean)", "value": 1.41, "unit": "µM·h"}, {"measurement": "Cmax", "setting": "[3]; 0.6 mg, Ex.1 weekly scheme 1, wk 2, 0.6 mg sc", "value": 12.3, "unit": "nM"}, {"measurement": "AUC(0-t)", "setting": "[3]; 0.6 mg, Ex.1 weekly scheme 3, wk 1, 0.6 mg sc, read-out: AUC0-168 (gMean)", "value": 1.24, "unit": "µM·h"}, {"measurement": "Cmax", "setting": "[3]; 0.6 mg, Ex.1 weekly scheme 3, wk 1, 0.6 mg sc", "value": 10.7, "unit": "nM"}, {"measurement": "AUC(0-t)", "setting": "[3]; 0.6 mg, Ex.1 weekly scheme 3, wk 2, 0.6 mg sc, read-out: AUC0-168 (gMean)", "value": 1.71, "unit": "µM·h"}, {"measurement": "Cmax", "setting": "[3]; 0.6 mg, Ex.1 weekly scheme 3, wk 2, 0.6 mg sc", "value": 14.4, "unit": "nM"}, {"measurement": "AUC(0-t)", "setting": "[3]; 0.6 mg, Ex.1 weekly scheme 4, wk 1, 0.6 mg sc, read-out: AUC0-168 (gMean)", "value": 1.57, "unit": "µM·h"}, {"measurement": "Cmax", "setting": "[3]; 0.6 mg, Ex.1 weekly scheme 4, wk 1, 0.6 mg sc", "value": 15.7, "unit": "nM"}, {"measurement": "AUC(0-t)", "setting": "[3]; 0.6 mg, Ex.1 weekly scheme 4, wk 3, 0.6 mg sc, read-out: AUC0-168 (gMean)", "value": 2.49, "unit": "µM·h"}, {"measurement": "Cmax", "setting": "[3]; 0.6 mg, Ex.1 weekly scheme 4, wk 3, 0.6 mg sc", "value": 22.3, "unit": "nM"}, {"measurement": "AUC(0-t)", "setting": "[3]; 0.6 mg, Ex.1 weekly scheme 5, wk 1, 0.6 mg sc, read-out: AUC0-168 (gMean)", "value": 1.44, "unit": "µM·h"}, {"measurement": "Cmax", "setting": "[3]; 0.6 mg, Ex.1 weekly scheme 5, wk 1, 0.6 mg sc", "value": 13.2, "unit": "nM"}, {"measurement": "AUC(0-t)", "setting": "[3]; 0.8 mg, Ex.1 weekly scheme 2, wk 2, 0.8 mg sc, read-out: AUC0-168 (gMean)", "value": 2.04, "unit": "µM·h"}, {"measurement": "Cmax", "setting": "[3]; 0.8 mg, Ex.1 weekly scheme 2, wk 2, 0.8 mg sc", "value": 16.9, "unit": "nM"}, {"measurement": "AUC(0-t)", "setting": "[3]; 0.9 mg, Ex.1 twice weekly scheme, wk 5, 0.9 mg sc, read-out: AUC0-72 (gMean)", "value": 2.39, "unit": "µM·h"}, {"measurement": "Cmax", "setting": "[3]; 0.9 mg, Ex.1 twice weekly scheme, wk 5, 0.9 mg sc", "value": 40.8, "unit": "nM"}, {"measurement": "AUC(0-t)", "setting": "[3]; 0.9 mg, Ex.1 twice weekly scheme, wk 6, 0.9 mg sc, read-out: AUC0-72 (gMean)", "value": 2.78, "unit": "µM·h"}, {"measurement": "Cmax", "setting": "[3]; 0.9 mg, Ex.1 twice weekly scheme, wk 6, 0.9 mg sc", "value": 49.2, "unit": "nM"}, {"measurement": "AUC(0-t)", "setting": "[3]; 0.9 mg, Ex.1 weekly scheme 1, wk 3, 0.9 mg sc, read-out: AUC0-168 (gMean)", "value": 2.48, "unit": "µM·h"}, {"measurement": "Cmax", "setting": "[3]; 0.9 mg, Ex.1 weekly scheme 1, wk 3, 0.9 mg sc", "value": 20.6, "unit": "nM"}, {"measurement": "AUC(0-t)", "setting": "[3]; 1.2 mg, Ex.1 twice weekly scheme, wk 7, 1.2 mg sc, read-out: AUC0-72 (gMean)", "value": 3.56, "unit": "µM·h"}, {"measurement": "Cmax", "setting": "[3]; 1.2 mg, Ex.1 twice weekly scheme, wk 7, 1.2 mg sc", "value": 58.8, "unit": "nM"}, {"measurement": "AUC(0-t)", "setting": "[3]; 1.2 mg, Ex.1 weekly scheme 1, wk 4, 1.2 mg sc, read-out: AUC0-168 (gMean)", "value": 3.36, "unit": "µM·h"}, {"measurement": "Cmax", "setting": "[3]; 1.2 mg, Ex.1 weekly scheme 1, wk 4, 1.2 mg sc", "value": 28.1, "unit": "nM"}, {"measurement": "AUC(0-t)", "setting": "[3]; 1.2 mg, Ex.1 weekly scheme 2, wk 3, 1.2 mg sc, read-out: AUC0-168 (gMean)", "value": 3.56, "unit": "µM·h"}, {"measurement": "Cmax", "setting": "[3]; 1.2 mg, Ex.1 weekly scheme 2, wk 3, 1.2 mg sc", "value": 31.7, "unit": "nM"}, {"measurement": "AUC(0-t)", "setting": "[3]; 1.2 mg, Ex.1 weekly scheme 3, wk 3, 1.2 mg sc, read-out: AUC0-168 (gMean)", "value": 3.23, "unit": "µM·h"}, {"measurement": "Cmax", "setting": "[3]; 1.2 mg, Ex.1 weekly scheme 3, wk 3, 1.2 mg sc", "value": 28.1, "unit": "nM"}, {"measurement": "AUC(0-t)", "setting": "[3]; 1.2 mg, Ex.1 weekly scheme 4, wk 5, 1.2 mg sc, read-out: AUC0-168 (gMean)", "value": 3.94, "unit": "µM·h"}]}
